Experimental data taken from the NIST ThermoML archive (doi:10.1016/j.jct.2007.01.010).
± gives the expanded uncertainty stated by the source.

Assays:
[1] = 101 kPa, Liquid
[2] = xn = mol fraction of the nth substance listed; conditions: 101 kPa, Liquid

CCOCCOCCOCCO [2-(2-(2-ethoxyethoxy)ethoxy)ethanol]
[1]
Conditions | viscosity [mPa·s]
293.15 K | 8.087 ± 0.14
298.15 K | 7.049 ± 0.13
303.15 K | 6.421 ± 0.12

CCOCCOCCOCCO [2-(2-(2-ethoxyethoxy)ethoxy)ethanol] + CCOC(C)(C)C
viscosity [mPa·s], [2]
Conditions | 293.15 K | 298.15 K | 303.15 K
x2 = 0 | 8.087 ± 0.14 | 7.049 ± 0.13 | 6.421 ± 0.12
x2 = 0.0501 | 6.804 ± 0.12 | 5.991 ± 0.11 | 5.485 ± 0.098
x2 = 0.0996 | 5.742 ± 0.098 | 5.091 ± 0.088 | 4.685 ± 0.082
x2 = 0.1502 | 4.816 ± 0.081 | 4.304 ± 0.073 | 3.982 ± 0.067
x2 = 0.1999 | 4.042 ± 0.066 | 3.643 ± 0.06 | 3.389 ± 0.056
x2 = 0.2502 | 3.391 ± 0.054 | 3.076 ± 0.049 | 2.874 ± 0.046
x2 = 0.3005 | 2.841 ± 0.044 | 2.597 ± 0.04 | 2.437 ± 0.038
x2 = 0.3506 | 2.383 ± 0.036 | 2.195 ± 0.033 | 2.067 ± 0.031
x2 = 0.4 | 2.008 ± 0.03 | 1.863 ± 0.028 | 1.759 ± 0.026
x2 = 0.4502 | 1.692 ± 0.024 | 1.582 ± 0.023 | 1.495 ± 0.022
x2 = 0.5 | 1.435 ± 0.02 | 1.351 ± 0.019 | 1.278 ± 0.018
x2 = 0.55 | 1.225 ± 0.017 | 1.16 ± 0.016 | 1.096 ± 0.015
x2 = 0.5955 | 1.067 ± 0.015 | 1.013 ± 0.014 | 0.959 ± 0.013
x2 = 0.6498 | 0.915 ± 0.013 | 0.873 ± 0.012 | 0.824 ± 0.011
x2 = 0.7 | 0.804 ± 0.011 | 0.77 ± 0.011 | 0.727 ± 0.01
x2 = 0.7502 | 0.714 ± 0.01 | 0.689 ± 0.009 | 0.654 ± 0.009
x2 = 0.7982 | 0.647 ± 0.009 | 0.628 ± 0.009 | 0.598 ± 0.008
x2 = 0.8491 | 0.593 ± 0.008 | 0.581 ± 0.008 | 0.555 ± 0.008
x2 = 0.9 | 0.555 ± 0.008 | 0.549 ± 0.008 | 0.524 ± 0.007
x2 = 0.95 | 0.533 ± 0.007 | 0.528 ± 0.007 | 0.502 ± 0.007

CCOC(C)(C)C [2-ethoxy-2-methylpropane]
[1]
Conditions | viscosity [mPa·s]
293.15 K | 0.532 ± 0.007
298.15 K | 0.504 ± 0.007
303.15 K | 0.478 ± 0.007

CCOC(C)(C)C [2-ethoxy-2-methylpropane] + CCOCCO
viscosity [mPa·s], [2]
Conditions | 293.15 K | 298.15 K | 303.15 K
x1 = 0.05 | 1.943 ± 0.024 | 1.691 ± 0.021 | 1.515 ± 0.019
x1 = 0.1001 | 1.766 ± 0.022 | 1.547 ± 0.02 | 1.394 ± 0.018
x1 = 0.1489 | 1.619 ± 0.02 | 1.424 ± 0.018 | 1.286 ± 0.016
x1 = 0.2002 | 1.476 ± 0.018 | 1.306 ± 0.017 | 1.184 ± 0.015
x1 = 0.2511 | 1.35 ± 0.017 | 1.203 ± 0.015 | 1.094 ± 0.014
x1 = 0.2999 | 1.242 ± 0.016 | 1.113 ± 0.014 | 1.017 ± 0.013
x1 = 0.3486 | 1.146 ± 0.014 | 1.031 ± 0.013 | 0.947 ± 0.012
x1 = 0.4 | 1.057 ± 0.013 | 0.955 ± 0.012 | 0.879 ± 0.011
x1 = 0.4511 | 0.977 ± 0.012 | 0.887 ± 0.011 | 0.82 ± 0.011
x1 = 0.5 | 0.908 ± 0.012 | 0.829 ± 0.011 | 0.769 ± 0.01
x1 = 0.5502 | 0.845 ± 0.011 | 0.775 ± 0.01 | 0.721 ± 0.01
x1 = 0.5999 | 0.791 ± 0.01 | 0.729 ± 0.01 | 0.679 ± 0.009
x1 = 0.652 | 0.74 ± 0.01 | 0.685 ± 0.009 | 0.64 ± 0.009
x1 = 0.6999 | 0.699 ± 0.009 | 0.649 ± 0.009 | 0.608 ± 0.008
x1 = 0.7499 | 0.66 ± 0.009 | 0.616 ± 0.008 | 0.578 ± 0.008
x1 = 0.8 | 0.626 ± 0.008 | 0.586 ± 0.008 | 0.552 ± 0.008
x1 = 0.8505 | 0.597 ± 0.008 | 0.56 ± 0.008 | 0.528 ± 0.007
x1 = 0.9 | 0.571 ± 0.008 | 0.538 ± 0.007 | 0.508 ± 0.007
x1 = 0.9499 | 0.549 ± 0.008 | 0.519 ± 0.007 | 0.492 ± 0.007
x1 = 1 | 0.532 ± 0.007 | 0.504 ± 0.007 | 0.478 ± 0.007

CCOC(C)(C)C [2-ethoxy-2-methylpropane] + CCOCCOCCO
[2], x1 = 1
Conditions | viscosity [mPa·s]
293.15 K | 0.532 ± 0.007
298.15 K | 0.504 ± 0.007
303.15 K | 0.478 ± 0.007

CCOC(C)(C)C [2-ethoxy-2-methylpropane] + CCOCCOCCOCCO
[2], x1 = 1
Conditions | viscosity [mPa·s]
293.15 K | 0.532 ± 0.007
298.15 K | 0.504 ± 0.007
303.15 K | 0.478 ± 0.007

CCOCCO [2-ethoxyethan-1-ol]
[1]
Conditions | viscosity [mPa·s]
293.15 K | 2.142 ± 0.027
298.15 K | 1.848 ± 0.023
303.15 K | 1.646 ± 0.021

CCOCCO [2-ethoxyethan-1-ol] + CCOC(C)(C)C
[2], x2 = 0
Conditions | viscosity [mPa·s]
293.15 K | 2.142 ± 0.027
298.15 K | 1.848 ± 0.023
303.15 K | 1.646 ± 0.021

CCOCCOCCO [3,6-dioxa-1-octanol]
[1]
Conditions | viscosity [mPa·s]
293.15 K | 4.464 ± 0.066
298.15 K | 3.976 ± 0.059
303.15 K | 3.531 ± 0.053

CCOCCOCCO [3,6-dioxa-1-octanol] + CCOC(C)(C)C
viscosity [mPa·s], [2]
Conditions | 293.15 K | 298.15 K | 303.15 K
x2 = 0 | 4.464 ± 0.066 | 3.976 ± 0.059 | 3.531 ± 0.053
x2 = 0.05 | 3.992 ± 0.058 | 3.574 ± 0.052 | 3.192 ± 0.047
x2 = 0.1 | 3.505 ± 0.05 | 3.156 ± 0.045 | 2.836 ± 0.041
x2 = 0.1501 | 3.037 ± 0.043 | 2.746 ± 0.039 | 2.49 ± 0.035
x2 = 0.2 | 2.637 ± 0.037 | 2.398 ± 0.033 | 2.183 ± 0.031
x2 = 0.2498 | 2.289 ± 0.031 | 2.093 ± 0.029 | 1.912 ± 0.026
x2 = 0.2999 | 1.991 ± 0.027 | 1.828 ± 0.025 | 1.683 ± 0.023
x2 = 0.3497 | 1.744 ± 0.023 | 1.605 ± 0.022 | 1.48 ± 0.02
x2 = 0.3999 | 1.526 ± 0.02 | 1.413 ± 0.019 | 1.312 ± 0.018
x2 = 0.4502 | 1.343 ± 0.018 | 1.245 ± 0.017 | 1.16 ± 0.016
x2 = 0.5002 | 1.184 ± 0.016 | 1.103 ± 0.015 | 1.03 ± 0.014
x2 = 0.55 | 1.049 ± 0.014 | 0.979 ± 0.013 | 0.918 ± 0.012
x2 = 0.5997 | 0.932 ± 0.012 | 0.872 ± 0.012 | 0.82 ± 0.011
x2 = 0.6504 | 0.832 ± 0.011 | 0.78 ± 0.01 | 0.736 ± 0.01
x2 = 0.7003 | 0.749 ± 0.01 | 0.704 ± 0.009 | 0.667 ± 0.009
x2 = 0.7503 | 0.682 ± 0.009 | 0.643 ± 0.009 | 0.611 ± 0.008
x2 = 0.7998 | 0.63 ± 0.009 | 0.596 ± 0.008 | 0.568 ± 0.008
x2 = 0.8498 | 0.591 ± 0.008 | 0.562 ± 0.008 | 0.536 ± 0.007
x2 = 0.9 | 0.563 ± 0.008 | 0.536 ± 0.007 | 0.512 ± 0.007
x2 = 0.95 | 0.545 ± 0.007 | 0.519 ± 0.007 | 0.495 ± 0.007
